According to publication PMC9572521, “Synthesis, Docking Studies and Pharmacological Evaluation of Serotoninergic Ligands Containing a 5-Norbornene-2-Carboxamide Nucleus” (Molecules, 2022):
pIC50, pKi: −log10 of the molar value. “Also recorded” adds a separate entry of the source.

Key:
[1] = target: T1, D2 receptor (Rattus norvegicus, UniProt P61169); test: Functional D2 receptor [35S]GTPγS assay (antagonist mode vs dopamine; basal for agonism); assay type: biochemical; conditions: against 40 µM dopamine, rat striatal homogenate; read-out: D2 receptor antagonistic activity IC50 (95% CI);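 note: [35S]GTPγS binding counted by scintillation after 60 min at 30 °C, nonspecific binding defined with 100 µM unlabeled GTPγS, inhibition curves fitted by one-site nonlinear regression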
T1 construct: 15μg/mL of striatal homogenate was incubated in triplicate; from tissue; host or cells: rat striatum homogenate
T1 sequence (P61169 whole entry): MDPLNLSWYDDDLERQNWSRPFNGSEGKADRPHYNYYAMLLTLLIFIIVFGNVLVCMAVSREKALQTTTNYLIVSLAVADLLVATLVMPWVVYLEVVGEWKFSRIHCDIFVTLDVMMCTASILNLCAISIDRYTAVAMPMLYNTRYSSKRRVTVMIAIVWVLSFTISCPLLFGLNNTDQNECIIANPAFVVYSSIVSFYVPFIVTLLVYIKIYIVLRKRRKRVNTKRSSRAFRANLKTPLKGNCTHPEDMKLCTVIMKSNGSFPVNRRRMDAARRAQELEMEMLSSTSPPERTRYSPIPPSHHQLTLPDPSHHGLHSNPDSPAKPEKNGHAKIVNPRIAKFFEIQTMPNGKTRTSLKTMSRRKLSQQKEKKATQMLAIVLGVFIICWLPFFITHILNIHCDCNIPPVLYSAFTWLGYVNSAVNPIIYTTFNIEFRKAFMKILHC

[2] = target: 5-HT2A receptor (Rattus norvegicus, UniProt P14842); test: 5-HT2A competition binding assay ([3H]ketanserin, frontal cortex homogenates); conditions: read-out: 5-HT2A Ki (95% CI)
Chain of 5-HT2A receptor (P14842 whole entry): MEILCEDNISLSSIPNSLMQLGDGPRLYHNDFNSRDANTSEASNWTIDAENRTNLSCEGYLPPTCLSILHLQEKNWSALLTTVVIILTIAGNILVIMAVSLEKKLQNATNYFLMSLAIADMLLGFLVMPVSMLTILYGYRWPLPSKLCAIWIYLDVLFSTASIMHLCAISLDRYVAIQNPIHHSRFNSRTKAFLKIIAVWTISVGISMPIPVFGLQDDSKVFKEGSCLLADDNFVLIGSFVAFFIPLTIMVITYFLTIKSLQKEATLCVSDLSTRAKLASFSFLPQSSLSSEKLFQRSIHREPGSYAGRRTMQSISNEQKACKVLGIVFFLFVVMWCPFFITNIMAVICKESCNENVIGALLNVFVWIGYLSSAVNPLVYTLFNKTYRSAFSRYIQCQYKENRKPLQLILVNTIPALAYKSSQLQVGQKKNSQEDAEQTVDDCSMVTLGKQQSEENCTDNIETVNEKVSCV

[3] = target: T2, human 5-HT2C receptor (Homo sapiens, UniProt P28335); test: 5-HT2C competition binding assay ([3H]mesulergine, transfected cell membranes); conditions: [3H]mesulergine, human 5-HT2C membranes; read-out: 5-HT2C Ki (95% CI)
T2 sequence (P28335 33-458): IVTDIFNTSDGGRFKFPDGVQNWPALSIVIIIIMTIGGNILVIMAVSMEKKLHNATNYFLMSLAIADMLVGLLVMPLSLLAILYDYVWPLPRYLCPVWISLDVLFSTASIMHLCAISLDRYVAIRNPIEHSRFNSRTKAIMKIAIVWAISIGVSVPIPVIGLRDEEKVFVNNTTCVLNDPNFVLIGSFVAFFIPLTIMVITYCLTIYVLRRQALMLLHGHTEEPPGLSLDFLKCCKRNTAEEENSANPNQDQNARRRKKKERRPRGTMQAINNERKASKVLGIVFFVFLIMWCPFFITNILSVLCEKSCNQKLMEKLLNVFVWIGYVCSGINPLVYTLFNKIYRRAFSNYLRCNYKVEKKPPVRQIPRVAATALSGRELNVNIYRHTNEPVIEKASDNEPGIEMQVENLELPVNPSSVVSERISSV

[4] = tested on: mice; test: Chimney test (motor coordination); assay type: in vivo, mouse; conditions: 60 min before the test
Description: (§1) The experiments were carried out, in the Experimental Medicine Center of Medical University of Lublin, on six-week-old naive male Swiss mice, weighing 24–30 g. The mice were housed in cages, five individuals per cage in an environmentally controlled rooms (ambient temperature 22 ± 1 °C; relative humidity 50–60%; 12 h light/dark cycle, lights on at 8:00). Standard laboratory food(LSM-Agropol-Motycz, Lublin, Poland) and filtered water were available ad libitum. All the experimental procedures were carried out, according to the National Institute of Health Guidelines for the Care and Use of Laboratory Animals and to the European Community Council Directive for the Care and Use of Laboratory Animals of 22 September 2010 (2010/63/EU) and approved by the Local Ethics Committee for Animal Experimentation in Lublin. The investigated compounds (Norbo-4, Norbo-8, Norbo-10, Norbo-14, Norbo-18 and Norbo-20) in all tests were administered intraperitoneally (i.p.), dissolved in dimethyl sulfoxide (DMSO, final concentration of 0.1%) and then diluted by aqueous solution of 0.5% methylcellulose (tylose) and injected 60 min before the tests. […] All compounds were given in a volume of 10 mL/kg to mice. The control animals received an equivalent volume of the solvent at the respective time before the tests. All the experiments were conducted in the light phase between 09.00 a.m. and 14.00 p.m. The experiments were performed by an observer unaware of the treatment administered. The effects of investigated compounds on motor coordination were evaluated in the rota-rod and chimney tests. In the first test, motor impairments were measured, defined as the inability to keep balance on a rotating rod (at constant speed of 18 rpm) for 1 min. In the second test, motor impairments were assessed by mouse inability to climb up the tube backwards (3 cm in inner diameter, 25 cm long) within 60 s. Before the tests, the animals were trained once a day for 3 days. The animals able to stay on the rotating rod or to leave the chimney for 60 s were approved for experiments.

[5] = tested on: mice; test: Rota-rod test (motor coordination); assay type: in vivo, mouse; conditions: 30 mg/kg i.p., 60 min before the test
Description: as §1

[6] = tested on: mice; test: Spontaneous locomotor activity; assay type: in vivo, mouse
[7] = tested on: mice; test: Elevated plus-maze test (EPM); assay type: in vivo, mouse; conditions: 60 min before the test
Description: The experiments were carried out, in the Experimental Medicine Center of Medical University of Lublin, on six-week-old naive male Swiss mice, weighing 24–30 g. The mice were housed in cages, five individuals per cage in an environmentally controlled rooms (ambient temperature 22 ± 1 °C; relative humidity 50–60%; 12 h light/dark cycle, lights on at 8:00). Standard laboratory food(LSM-Agropol-Motycz, Lublin, Poland) and filtered water were available ad libitum. All the experimental procedures were carried out, according to the National Institute of Health Guidelines for the Care and Use of Laboratory Animals and to the European Community Council Directive for the Care and Use of Laboratory Animals of 22 September 2010 (2010/63/EU) and approved by the Local Ethics Committee for Animal Experimentation in Lublin. The investigated compounds (Norbo-4, Norbo-8, Norbo-10, Norbo-14, Norbo-18 and Norbo-20) in all tests were administered intraperitoneally (i.p.), dissolved in dimethyl sulfoxide (DMSO, final concentration of 0.1%) and then diluted by aqueous solution of 0.5% methylcellulose (tylose) and injected 60 min before the tests. […] All compounds were given in a volume of 10 mL/kg to mice. The control animals received an equivalent volume of the solvent at the respective time before the tests. All the experiments were conducted in the light phase between 09.00 a.m. and 14.00 p.m. The experiments were performed by an observer unaware of the treatment administered. The EPM studies were carried out on mice according to the method of Lister. The EPM apparatus was made of plexiglass and consisted of two open (30 × 5 cm) and two enclosed (30 × 5 × 15 cm) arms. The arms extended from a central platform of 5 × 5 cm. The apparatus was mounted on a plexiglass base, raising it 38.5 cm above the floor, and illuminated by a red light. The test consisted of placing a mouse in the center of the apparatus (facing an open arm) and allowing it to freely explore. The number of entries into the open arms and the time spent in these arms were scored for a 5 min test period. An entry was defined as placing all four paws within the boundaries of the arm. The following measures were obtained from the test: the total number of arm entries; the percentage of arm entries into the open arms; and the time spent in the open arms expressed as a percentage of the time spent in both the open and closed arms. Anxiolytic activity was indicated by increases in the time spent in open arms and in the number of open arm entries. The total number of entries into either type of arm was used additionally as a measure of overall motor activity.

Cc1cccc(N2CCN(CCCNC(=O)C3CC4C=CC3C4)CC2)c1C (stereo not drawn) [Norbo-4, endo-N-(3-(4-(2,3-dimethylphenyl)piperazin-1-yl)propyl)bicyclo[2.2.1]hept-5-ene-2-carboxamide] was tested, and the pIC50 [1] was 4.48, the pKi [2] was 7.48 and the pKi [3] was 5.68. The time in chimney ([4]; 15 mg/kg i.p.) was “significant increase of time in chimney”, the time in chimney ([4]; 30 mg/kg i.p.) was “significant increase of time in chimney; also recorded: disturbed the behavior of mice” and the time on rota-rod [5] was “decreased also time on rota-rod; also recorded: impaired motor coordination”. For the same molecule, the spontaneous locomotor activity ([6]; 15 mg/kg i.p., after 6 min of observation) was “significant decrease in locomotor activity; also recorded: induced the same effect”, the spontaneous locomotor activity ([6]; 15 mg/kg i.p., after 20 min of observation) was “significant decrease in locomotor activity; also recorded: induced the same effect” and the spontaneous locomotor activity ([6]; 30 mg/kg i.p., after 6 min of observation) was “significant decrease in locomotor activity”. For the same molecule, the spontaneous locomotor activity ([6]; 30 mg/kg i.p., after 20 min of observation) was “significant decrease in locomotor activity”, the “percentage of time spent in open arms (EPM)” value ([7]; 3.75 mg/kg i.p.) was “significant increase in time spent in open arms; also recorded: increased the percentage of open arm exploration time” and the “percentage of the open arm entries (EPM)” value ([7]; 15 mg/kg i.p.) was “increase the percentage of open arm entries”. For the same molecule, the “percentage of time spent in open arms (EPM)” value ([7]; 15 mg/kg i.p.) was “significant increase in time spent in open arms; also recorded: increased the percentage of open arm exploration time”.
